Values of other authors, collected in patent US20080095814A1, “Compositions Having a High Antiviral and Antibacterial Efficacy” (THE DIAL CORPORATION, priority 2004, published 2008).

Tested on: rhinoviral infections
Conditions: subjects who used iodine products

Question: For `II` [iodine], which “colds in users versus placebo users” value is on record?
Answer: significantly fewer colds than placebo users
